“Also recorded” adds a separate entry of the source.

Experimental findings from article PMC7336998, “Discovery of secondary sulphonamides as IDO1 inhibitors with potent antitumour effects in vivo” (Journal of Enzyme Inhibition and Medicinal Chemistry, 2020) are described below.

Series [1] concerns naïve CD4+ T cells co-cultured with B16F1 cells. Nature of the series: FoxP3+ Treg cell differentiation in B16F1-T cell co-culture (flow cytometry). Particulars: 18 μM. Type of series: cell-based, mouse. Here is the method:
(§1) The main bioassays performed in the study, including HeLa cell-based IDO1/kynurenine assay, Western blot analysis, T cell proliferation and Treg cell differentiation experiments, were carried out as described previously.
Besides causing local tryptophan depletion, high IDO1 expression can also accumulate metabolites of kynurenine pathway. The elevated metabolites can not only induce effector T cell death directly through their cytotoxicity, but also promote the differentiation of naïve CD4^+ T cells into CD4^+ FoxP3^+ Treg cells by activating the AHR pathway. As a highly immunosuppressive subset of CD4^+ T cells, FoxP3^+ Treg cells are critical to the maintenance of immune homeostasis and are involved in tumour immune escape, thereby contributing to tumour development and progression. Therefore, we also utilised co-culture of B16F1 cells with naïve CD4^+ T cells to test whether the synthesised compounds could suppress IDO1 mediated Treg cell differentiation.
Figure 5. Compounds 5d and 8 g inhibited Treg cell differentiation in the cell co-culture system. (A) After co-cultured with B16F1 cells, T cells were collected. Surface staining was performed with CD4^+ FTTC and CD25^+ PE for 30 min at 4 °C. The cells were fixed and permeabilized with fixation buffer and permeabilization wash buffer. The intracellular staining was performed with FoxP3^+ APC for 20 min. The cells were then analysed by flow cytometry analysis. (B) Statistical analysis of result A. Data are represented as ± SEM (n = 3). *p < 0.05, **p < 0.01 vs T + B16F1. TEXT PRINTED IN THE PICTURE: (A) Navoximod: 8.1% (T + B16F1; 1.5 μM) | (A) 8g: 7.8% (T + B16F1; 18 μM) | (A) 5d: 2.1% (T + B16F1; 18 μM)

Another series concerns CT26 colon carcinoma. Nature of the series: CT26 colon carcinoma xenograft in immunodeficient BALB/c nude mice. The series is classed as in vivo, mouse. The method, then: Eight-week-old male BALB/c nude mice, weighing 18–22 g, were supplied by Model Animal Research Centre of Nanjing University (Nanjing, China). 1 × 10^7/ml and 1 × 10^6 CT26 cells (in 0.1 ml PBS) were injected subcutaneously into the right flanks of mice. After CT26 xenograft BALB/c nude mouse model was established, all mice were randomly divided into three groups (n = 8). 5d (12.5 mg/kg) were administered (i.g) every day and 5-FU (25 mg/kg) awere administered (i.p) every three days. The following experimental procedures were similar to the described above.
For immunohistochemistry staining, the sections were deparaffinized, rehydrated, and washed in 1% PBS-Tween 20, and then treated with 2% hydrogen peroxide, blocked with 3% goat serum (Life Technology, 16210–064) and incubated for 2 h at room temperature with specific primary antibodies. Then the slides were incubated with streptavidin-HRP (Shanghai Gene Company, GK500705) for 40 min, then stained with DAB (Shanghai Gene Company, GK500705) substrate and counter-stained with haematoxylin. Images were acquired by microscopy (Olympus IX51).
Then, in order to clarify whether the in vivo antitumour efficacy of compound 5d was related to the mouse immune system, we repeated the above experiment in immunodeficient nude mice. Briefly, BALB/c nude mice bearing established CT26 colon carcinoma xenograft were treated with compound 5d and 5-FU for 10 days.
Figure 8. […] 1 × 10^6 CT26 cells were transplanted subcutaneously into the armpit of immunodeficient BALB/c nude mice. Three days after transplantation, mice were randomly allocated to vehicle control or treatment groups (n = 8). Drugs were administered on days 1–9. (A) Tumour volume and mouse body weight (B) were recorded. After sacrifice, solid tumours were separated and weighed (C, D). Data represent mean ± SEM, n = 8, *p < 0.05, **p < 0.01 vs vehicle.
To verify the above conclusions, we further performed H&E and IHC staining on the nude mouse CT26 tumour tissues. […] These findings further supported the above conclusions.

The subject of another series is IDO1 protein expression. As to the kind of experiment: Western blot of IDO1 protein expression in IFN-γ-treated HeLa cells. Type of series: cell-based, human. Here is the method:
as §1
To exclude the possibility that these secondary sulphonamides inhibit IDO1 activity by down-regulating IDO1 expression, we utilised Western blot to measure the expression of IDO1 protein in HeLa cells treated with different compounds.
Figure 3. […] (B) The greyscale scanning statistical results of A. (C) HeLa cells were incubated with compound 5d (3, 10, 30 μM) for 24 h. (D) The greyscale scanning statistical results of C. (E) HeLa cells were incubated with compound 5d (3, 10, 30 μM) for 48 h. (F) The greyscale scanning statistical results of E. Data are presented as means ± SEM (n = 3).

The next series relates to HeLa cells. As to the kind of experiment: HeLa cell viability by MTT at the end of the IDO1/kynurenine assay. Type of series: cell-based, human. The note with it: under the experimental conditions of the IDO1 assay. The source says: It is well known that IDO1 is broadly expressed in human cancers and is induced by pro-inflammatory cytokines, such as interferon gamma (IFN-γ) and tumour necrosis factor alpha (TNF-α)[41]. Here we utilised a human cervical cancer cell line HeLa that endogenously expresses IDO1 upon IFN-γ treatment to evaluate the IDO1 inhibitory activity of the synthesised compounds by measuring kynurenine secreted into the media. This cell-based assay, as a rapid and simple method for determination IDO1/kynurenine, is closely related to the potency of the enzyme assay and has been widely used to identify various IDO1 inhibitors[19]^,[23]^,[29]^,[42]. In addition, cytotoxic compounds can reduce cell viability, which will decrease the IDO1 levels and then lower the conversion of tryptophan to kynurenine. Thus, we also employed this cellular assay to detect false positive IDO1 inhibitors and cytotoxic compounds by measuring HeLa cell viability. Clinical candidate navoximod was used as an assay control.
Furthermore, the viability of HeLa cells was evaluated by the MTT method at the end of the assay.

Setting [2] is: nude mouse CT26 tumour tissue, 12.5 mg/kg i.g.

For the molecule `C=CC(=O)Nc1ccc(S(=O)(=O)NCc2cccc(Cl)c2)cc1` [5d, N-(4-(N-(3-Chlorobenzyl)sulfamoyl)phenyl)acrylamide], the “FoxP3+ Treg cells (flow cytometry)” value in series [1] stood at 2.1%. Besides, in series [1] (Con A, 48 h), the “FoxP3+ Treg cell differentiation (in words)” value is reported as “significantly reduce FoxP3^+ Treg cell differentiation; also recorded: returned to the initial level”. The tumour growth result in the series on CT26 colon carcinoma (BALB/c nude mice, 12.5 mg/kg i.g every day, vs vehicle) is given as “did not block tumour growth”. For the same molecule, in the series on CT26 colon carcinoma (setting [2]), the “expression of PCNA” value is given as “had no influence on the expression of PCNA”. Also, the “tumour cell morphology (H&E staining)” value with CT26 colon carcinoma (setting [2]) is given as “remained intact morphology”. Moreover, the “expression of IDO1 protein” value in the series on IDO1 protein expression (HeLa cells, 3, 10, 30 µM for 24 h or 48 h) is reported as “did not affect IDO1 expression”; with IDO1 protein expression (HeLa cells, IFN-γ 100 ng/mL 24 h, then compounds at their IC50 concentrations for 24 h), “did not influence IDO1 expression”. Besides, in the series with HeLa cells, the HeLa cell viability result was “without affecting the cell viability”.
